Test results as given in patent US9314024B2, “Herbicidal compositions comprising aminopyralid and bentazon” (Dow AgroSciences LLC, priority 2012, dated 2016).

Key:
Assay in all cases: Postemergence herbicidal activity, field trial in rice, Espinal, Colombia
Conditions in all cases: 29 DAA, postemergence foliar
[1] = tested on: Corchorus spp (jute, CRGSS); format: in vivo, Corchorus sp
Description: (§1) These trials were conducted under field conditions in Espinal, Colombia. Trial sites were located in commercially grown fields of common rice (Oryza sativa). The rice crop was grown using normal cultural practices for fertilization, seeding, and maintenance to ensure good growth of the crop and the weeds. The trials were conducted using normal research methodology. Trial plots were 2 meters (m) wide by 5 m long. All treatments were applied using a randomized complete block trial design with 4 replications per treatment. The trial sites had naturally occurring populations of weeds. The weed spectrum included, but was not limited to, Cyperus iria L. (rice flatsedge, CYPIR), Phyllanthus niruri L. (gripeweed, PYLNI) and Corchorus spp (jute, CRGSS). The plots were treated with a postemergence foliar application 19 days after emergence of the rice.
(§2) Treatments consisted of tank mixes of aminopyralid triisopropanolammonium salt (MILESTONE 240SL) and commercially available formulations of bentazon herbicide (BASAGRAN 480SL). The application volume was 200 liters per hectare (L/ha) of water. All application were made using precision gas hand sprayers with a 2 m boom using flat fan (8002) nozzles to broadcast the treatments over the top of the rice and weeds.
(§3) The treated plots and control plots were rated blind at various intervals after application. Ratings were based on Percent (%) Visual weed control, where 0 corresponds to no injury and 100 corresponds to complete kill.
(§4) Colby's equation was used to determine the herbicidal effects expected from the mixtures (Colby, S. R. Calculation of the synergistic and antagonistic response of herbicide combinations. Weeds 1967 15, 20-22).
(§5) The following equation was used to calculate the expected activity of mixtures containing two active ingredients, A and B: Expected=A+B−(A×B/100)
(§6) A=observed efficacy of active ingredient A at the same concentration as used in the mixture;
(§7) B=observed efficacy of active ingredient B at the same concentration as used in the mixture.

[2] = tested on: Cyperus iria L. (rice flatsedge, CYPIR); format: in vivo
Description: as §1, §2, §3, §4, §5, §6, §7

[3] = tested on: Phyllanthus niruri L. (gripeweed, PYLNI); format: in vivo
Description: as §1, §2, §3, §4, §5, §6, §7

Row | SMILES | Visual Weed Control (%) CRGSS Obs ([1]; bentazon 180 g ai/ha alone) [%] | Visual Weed Control (%) CYPIR Obs ([2]; bentazon 180 g ai/ha alone) [%] | Visual Weed Control (%) PYLNI Obs ([3]; bentazon 180 g ai/ha alone) [%] | Visual Weed Control (%) CRGSS Obs ([1]; aminopyralid 4 g ae/ha alone) [%] | Visual Weed Control (%) CRGSS Obs ([1]; aminopyralid 8 g ae/ha alone) [%] | Visual Weed Control (%) CYPIR Obs ([2]; aminopyralid 4 g ae/ha alone) [%] | Visual Weed Control (%) CYPIR Obs ([2]; aminopyralid 8 g ae/ha alone) [%] | Visual Weed Control (%) CYPIR Obs ([2]; aminopyralid 16 g ae/ha alone) [%] | Visual Weed Control (%) PYLNI Obs ([3]; aminopyralid 4 g ae/ha alone) [%] | Visual Weed Control (%) PYLNI Obs ([3]; aminopyralid 8 g ae/ha alone) [%] | Visual Weed Control (%) PYLNI Obs ([3]; aminopyralid 16 g ae/ha alone) [%]
1 | CC(C)N1C(=O)c2ccccc2NS1(=O)=O [Bentazon, 3-(1-methylethyl)-1H-2,1,3-benzothiadiazin-4(3H)-one 2,2-dioxide] | 80 | 74 | 19 | – | – | – | – | – | – | – | –
2 | Nc1cc(Cl)nc(C(=O)O)c1Cl [Aminopyralid, 4-amino-3,6-dichloro-2-pyridinecarboxylic acid] | – | – | – | 48 | 70 | 0 | 0 | 41 | 0 | 0 | 0
